# Assay results reported in PubChem BioAssay (NCI).
#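 1) Cells in 96-well plates. 2) Compound, 48 h, 5 concentrations. 3) Linear interpolation between surrounding doses. 4) Unreached endpoint = highest concentration. TGI: concentration producing complete growth inhibition.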
# Columns and labels:
# Assay in all cases: growth of human tumour cells (NCI), 48 h
# [1] = tested on: SF-539 CNS
# [2] = tested on: UACC-257 melanoma
# [3] = tested on: NCI-H522 lung
# [4] = tested on: CAKI-1 renal
# [5] = tested on: DMS 273 small cell lung
# [6] = tested on: K-562 leukemia
# [7] = tested on: SF-268 CNS
# [8] = tested on: UO-31 renal
# [9] = tested on: A498 renal
# [10] = tested on: HCT-116 colon
# [11] = tested on: M19-MEL melanoma
# [12] = tested on: SNB-78 CNS
# [13] = tested on: HCT-15 colon
# [14] = tested on: NCI-H460 lung
# [15] = tested on: M14 melanoma
# [16] = tested on: HOP-92 NSCLC
# [17] = tested on: HT29 colon
# [18] = tested on: RXF 393 renal
# [19] = tested on: LOX IMVI melanoma
# [20] = tested on: NCI-H226 lung
# [21] = tested on: TK-10 renal
# [22] = tested on: A549 NSCLC
# [23] = tested on: IGROV1 ovarian
# [24] = tested on: HL-60(TB) leukemia
# [25] = tested on: OVCAR-5 ovarian
# [26] = tested on: NCI-H23 lung
# [27] = tested on: ACHN renal
# [28] = tested on: U251 CNS
# [29] = tested on: SNB-75 CNS
# [30] = tested on: OVCAR-8 ovarian
# [31] = tested on: KM12 colon
# [32] = tested on: SF-295 CNS
# [33] = tested on: SK-MEL-5 melanoma
# [34] = tested on: RXF-631 renal
# [35] = tested on: SK-MEL-28 melanoma
# [36] = tested on: EKVX NSCLC
# [37] = tested on: OVCAR-4 ovarian
# [38] = tested on: OVCAR-3 ovarian
# [39] = tested on: MOLT-4 leukemia
# [40] = tested on: KM20L2 colon
# [41] = tested on: SN12C renal
# [42] = tested on: DMS 114 small cell lung
# [43] = tested on: CCRF-CEM leukemia
# [44] = tested on: RPMI-8226 leukemia
# [45] = tested on: SK-OV-3 ovarian
# [46] = tested on: SNB-19 CNS
# [47] = tested on: UACC-62 melanoma
structure (smiles),measurement,setting,value
O=C1CCCCC2N(C(c3ccccc3)c3ccccc3)CC[C@@]12c1ccccc1 (mixture of isomers),TGI,[1],> 10 µM
same,TGI,[2],> 10 µM
same,TGI,[3],> 10 µM
same,TGI,[4],> 10 µM
same,TGI,[5],> 10 µM
same,TGI,[6],> 10 µM
same,TGI,[7],> 10 µM
same,TGI,[8],> 10 µM
same,TGI,[9],> 10 µM
same,TGI,[10],> 10 µM
same,TGI,[11],> 10 µM
same,TGI,[12],> 10 µM
same,TGI,[13],> 10 µM
same,TGI,[14],> 10 µM
same,TGI,[15],> 10 µM
same,TGI,[16],> 10 µM
same,TGI,[17],> 10 µM
same,TGI,[18],> 10 µM
same,TGI,[19],> 10 µM
same,TGI,[20],> 10 µM
same,TGI,[21],> 10 µM
same,TGI,[22],> 10 µM
same,TGI,[23],> 10 µM
same,TGI,[24],9.4 µM
same,TGI,[25],> 10 µM
same,TGI,[26],> 10 µM
same,TGI,[27],> 10 µM
same,TGI,[28],> 10 µM
same,TGI,[29],> 10 µM
same,TGI,[30],> 10 µM
same,TGI,[31],> 10 µM
same,TGI,[32],> 10 µM
same,TGI,[33],> 10 µM
same,TGI,[34],> 10 µM
same,TGI,[35],> 10 µM
same,TGI,[36],> 10 µM
same,TGI,[37],> 10 µM
same,TGI,[38],> 10 µM
same,TGI,[39],> 10 µM
same,TGI,[40],> 10 µM
same,TGI,[41],> 10 µM
same,TGI,[42],> 10 µM
same,TGI,[43],> 10 µM
same,TGI,[44],9.31 µM
same,TGI,[45],> 10 µM
same,TGI,[46],> 10 µM
same,TGI,[47],> 10 µM
